Laboratory results: US12729377B2, “RNAi agents and compositions for inhibiting expression of angiopoietin-like 3 (ANGPTL3), and methods of use” (Arrowhead Pharmaceuticals, Inc., priority 2017, dated 2026)
In the oligonucleotide strings, read from the 5' end, every base follows the letter of its sugar. An asterisk marks phosphorothioate; unmarked linkages are phosphodiester. Other units and linkages are bracketed, terminal groups are in braces. A string of capitals states the bases alone. {NAG37} = tridentate N-acetyl-galactosamine targeting ligand, structure (NAG37)s; [invAb] = inverted abasic unit; m = 2'-O-methyl; f = 2'-fluoro

Legend:
ANGPTL3 protein = experiment: Example 12: serum ANGPTL3 protein by ELISA in LDLR knockout mice; type: in vivo, LDLR KO mice
Source text: To evaluate the effect of RNAi agent administration in a disease model, mice having a genetic mutation for the LDL receptor (referred to herein as LDLR KO mice) were commercially obtained (The Jackson Laboratory). The LDLR KO mice are homozygous for the Ldlr^tm1Her mutation, and have elevated serum cholesterol levels, particularly when placed on a high fat diet. For three weeks prior to the onset of the study, thirty-nine (39) LDLR KO mice were placed on a high fat diet (Teklad Custom Diets TD.88137). An additional eight (8) LDLR KO mice were placed on a normal chow diet over the same three-week period. Pre-dose serum samples were taken on day −15 and day −1 after a four hour fast. At day 1, each mouse was given a single subcutaneous administration of 200 μl/30 g animal body weight containing the respective mg/kg dose of an ANGPTL3 RNAi agent in D5W (dextrose in 5% water), control (D5W) with no RNAi agent, or a control RNAi agent that included a nucleotide sequence designed to target the Hepatitis B Virus (HBV) genome. A second injection of the same formulation was administered to the animals on day 29. The dosing regimen for the study is recited in the following Table 60:
Each mouse remained on its respective diet through the duration of study. The RNAi agent tested (AD05488) included a modified sequence and an N-acetyl-galactosamine-containing targeting ligand conjugated to the 5′ terminal end of the sense strand. (See Tables 3, […] modified sequences and targeting ligand structures). The injections were performed between the skin and muscle (i.e. subcutaneous injections) into the loose skin over the neck and shoulder area. Serum was collected on days 8, 15, 22, 29 (pre-second dose), 36, 43, 50, and 57. LDLR KO mice were fasted for four hours prior to each collection. On day 15, four (4) LDLR KO mice from Groups 1, 2, and 3 (i.e., the groups being administered the high fat “Western” diet) were sacrificed after serum collection, and on day 29, an additional four (4) LDLR KO mice from Groups 1, 2, and 3 were sacrificed after serum collection, for the purpose of performing mRNA assessments.
ANGPTL3 protein levels in serum were measured by ELISA assay (R&D Systems), according to the manufacturer's recommendations. Triglycerides, total cholesterol, high-density lipoprotein (HDL), and low-density lipoprotein (LDL) in serum were measured on a Cobas® Integra 400 (Roche Diagnostics), according to the manufacturer's recommendations.
The ANGPTL3 protein levels, triglyceride levels, total cholesterol levels, HDL levels, and LDL levels for each animal were normalized. For normalization, respective levels of ANGPTL3 protein, TG, total cholesterol, HDL, or LDL for each animal at a time point was divided by the average pre-treatment level of expression in that animal (in this case the average of day −15 and day −1) to determine the ratio of expression “normalized to pre-treatment.”
Expression at a specific time point was then normalized to the D5W control group that was administered the same diet (i.e., either the high fat “Western” diet or the normal chow-fed diet) by dividing the “normalized to pre-treatment” ratio for an individual animal by the mean “normalized to pretreatment” ratio of all mice in the D5W control group on the respective same diet, resulting in expression for each time point normalized to that in the control group.

ANGPTL3 gene = experiment: Example 10: serum total cholesterol in mice; type: in vivo; conditions: 0.5 mg/kg single SC injection day 1, female C57bl/6 mice, n=3, ratio to D5W control
Experimental: To assess the in vivo activity of further ANGPTL3 RNAi agents that are designed to target position 304 on the ANGPTL3 gene, six- to eight-week-old female C57bl/6 mice were used. Pre-dose serum samples were taken at day −1 after a four hour fast. At day 1, each mouse was given a single subcutaneous administration of 200 μl containing 0.5 mg/kg (mpk) of an ANGPTL3 RNAi agent in D5W (dextrose in 5% water), or control (D5W) with no RNAi agent, according to the dosing groups recited in Table 47.
Each of the RNAi agents included a modified sequence and an N-acetyl-galactosamine-containing targeting ligand conjugated to the 5′ terminal end of the sense strand. (See Tables 3, 4, and 5 for modified sequences and targeting ligand structures). As noted above, each of the ANGPTL3 RNAi agents dosed in this study included nucleotide sequences designed to target the ANGPTL3 gene at position 304. The injections were performed between the skin and muscle (i.e. subcutaneous injections) into the loose skin over the neck and shoulder area. Three (3) mice in each group were tested (n=3). Serum was collected on days 8, 15, 22, 29, and for some groups on day 36 (i.e., Groups 1, 2, and 9-13 only). Mice were fasted for four hours prior to each collection. ANGPTL3 protein levels in serum were measured by ELISA assay (R&D Systems), according to the manufacturer's recommendations. Triglycerides, total cholesterol, high-density lipoprotein (HDL), and low-density lipoprotein (LDL) in serum were measured on a Cobas® Integra 400 (Roche Diagnostics), according to the manufacturer's recommendations.
The ANGPTL3 protein levels, triglyceride levels, total cholesterol levels, HDL levels, and LDL levels for each animal were normalized. For normalization, the level of ANGPTL3 protein, triglyceride, HDL, and total cholesterol, respectively, for each animal at a time point, was divided by the pre-treatment level of expression in that animal (in this case at day −1) to determine the ratio of expression “normalized to pre-treatment.” Expression at a specific time point was then normalized to the D5W control group by dividing the “normalized to pre-treatment” ratio for an individual animal by the mean “normalized to pretreatment” ratio of all mice in the D5W control group.

[1] = day 57, two 3 mg/kg doses, LDLR KO mice on high fat Western diet

With “AD05488: RNAi agent duplex: antisense AM07235-AS, sense AM07234-SS (antisense mU*fA*mC*fUmGfAmUfCmAfAmAfUmAfUmGfUmUfGmAfG*mC; sense {NAG37}*[invAb]*mGmCmUmCmAmAmCmAfUfAfUmUmUmGmAmUmCmAmGmUmA*[invAb])” the “reductions in ANGPTL3 protein levels” value (ANGPTL3 protein; 3.0 mg/kg on days 1 and 29 (Groups 2 and 5), LDLR KO mice) was “significant reductions”, the “Avg ANGPTL3 Protein Normalized to Pre-Treatment and Control (Diet Matched)” value (“Avg ANGPTL3 Protein Normalized” below) (ANGPTL3 protein; 3.0 mg/kg sc day 1, High Fat Diet, Day 8) was 0.013 and the “Avg ANGPTL3 Protein Normalized” value (ANGPTL3 protein; 3.0 mg/kg sc day 1, High Fat Diet, Day 15) was 0.009. The “Avg ANGPTL3 Protein Normalized” value (ANGPTL3 protein; 3.0 mg/kg sc day 1, High Fat Diet, Day 22) was 0.011, the “Avg ANGPTL3 Protein Normalized” value (ANGPTL3 protein; 3.0 mg/kg sc day 1, High Fat Diet, Day 29 (pre-second dose)) was 0.011 and the “Avg ANGPTL3 Protein Normalized” value (ANGPTL3 protein; 3.0 mg/kg sc day 1, Normal Diet, Day 8) was 0.042. The “Avg ANGPTL3 Protein Normalized” value (ANGPTL3 protein; 3.0 mg/kg sc day 1, Normal Diet, Day 15) was 0.037, the “Avg ANGPTL3 Protein Normalized” value (ANGPTL3 protein; 3.0 mg/kg sc day 1, Normal Diet, Day 22) was 0.043 and the “Avg ANGPTL3 Protein Normalized” value (ANGPTL3 protein; 3.0 mg/kg sc day 1, Normal Diet, Day 29 (pre-second dose)) was 0.060. For the same substance, the “Avg ANGPTL3 Protein Normalized” value (ANGPTL3 protein; 3.0 mg/kg sc days 1 and 29, High Fat Diet, Day 36) was 0.005, the “Avg ANGPTL3 Protein Normalized” value (ANGPTL3 protein; 3.0 mg/kg sc days 1 and 29, High Fat Diet, Day 43) was 0.005 and the “Avg ANGPTL3 Protein Normalized” value (ANGPTL3 protein; 3.0 mg/kg sc days 1 and 29, High Fat Diet, Day 50) was 0.005. The “Avg ANGPTL3 Protein Normalized” value (ANGPTL3 protein; 3.0 mg/kg sc days 1 and 29, High Fat Diet, Day 57) was 0.007, the “Avg ANGPTL3 Protein Normalized” value (ANGPTL3 protein; 3.0 mg/kg sc days 1 and 29, Normal Diet, Day 36) was 0.024 and the “Avg ANGPTL3 Protein Normalized” value (ANGPTL3 protein; 3.0 mg/kg sc days 1 and 29, Normal Diet, Day 43) was 0.024. The “Avg ANGPTL3 Protein Normalized” value (ANGPTL3 protein; 3.0 mg/kg sc days 1 and 29, Normal Diet, Day 50) was 0.032, the “Avg ANGPTL3 Protein Normalized” value (ANGPTL3 protein; 3.0 mg/kg sc days 1 and 29, Normal Diet, Day 57) was 0.037 and the “ANGPTL3 protein normalized to pre-treatment and control (diet matched)” value (ANGPTL3 protein; [1]) was 0.007. The “reduction in ANGPTL3 protein levels compared to control” value (ANGPTL3 protein; [1]) was “approximately 99%”, the “Average Total Cholesterol Normalized to Pre-Treatment and Control” value (“Average Total Cholesterol Normalized” for short) (ANGPTL3 gene; Day 8) was 0.659 and the “Average Total Cholesterol Normalized” value (ANGPTL3 gene; Day 15) was 0.808. The “Average Total Cholesterol Normalized” value (ANGPTL3 gene; Day 22) was 0.763, the “Average Total Cholesterol Normalized” value (ANGPTL3 gene; Day 29) was 0.743 and the “Average Total Cholesterol Normalized” value (ANGPTL3 gene; Day 36) was 0.824.
